The record followed here is the supplement of paper PMC10307832.

Holding throughout (test): relative viability (nuclei count vs DMSO), 5 days (fraction); higher = more cells survive
Compound in test [1]: O=c1[nH]cc(F)c(=O)[nH]1 [5-Fluorouracil] + O=C(c1cc(Cc2n[nH]c(=O)c3ccccc23)ccc1F)N1CCN(C(=O)C2CC2)CC1 [Olaparib] (partner 8 µM)
In short, it runs like this:
(§1)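 Nuclei were stained with Hoechst during a one-step fixation (final 0.05% Triton X-100, 1% formaldehyde, 1 ug/ml Hoechst) carried out 5 days after dosing, then counted on 4× images. The cells, lung cancer lines in 1536-well plates, had been dosed by pin tool the day after seeding with one drug alone or a fixed anchor-drug dose plus five library-drug doses (not always all listed) in √10 steps. Relative viability is the nuclei count in treated wells divided by that in vehicle wells, and each value is the median of duplicate plates.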

Compound in the test “Sulindac + Olaparib”: CC1=C(CC(=O)O)c2cc(F)ccc2/C1=C\c1ccc([S+](C)[O-])cc1 [Sulindac] + O=C(c1cc(Cc2n[nH]c(=O)c3ccccc23)ccc1F)N1CCN(C(=O)C2CC2)CC1 [Olaparib] (partner 8 µM)
In short, it runs like this:
as §1

Compound in test [2]: CN[C@@H]1C[C@H]2O[C@@](C)([C@@H]1OC)n1c3ccccc3c3c4c(c5c6ccccc6n2c5c31)C(=O)NC4 [Staurosporine] + N=C(N)NC(=N)NCCc1ccccc1 [Phenformin] (partner 250 µM)
In a few lines: as §1

Compound in test [3]: O=c1[nH]cc(F)c(=O)[nH]1 [5-Fluorouracil] + CC(=O)c1c(C)c2cnc(Nc3ccc(N4CCNCC4)cn3)nc2n(C2CCCC2)c1=O [Palbociclib] (partner 0.5 µM)
In a few lines:
as §1

As to UMC-11, the relative viability amounted to 0.409 in test [1] (first compound 0.02 µM); 0.37 in test [1] (first compound 0.2 µM); 0.334 in test [1] (first compound 0.6325 µM); 0.463 with Sulindac + Olaparib (first compound 0.08 µM); 0.342 with Sulindac + Olaparib (first compound 0.253 µM); 0.42 with Sulindac + Olaparib (first compound 0.8 µM). Further, the relative viability with Sulindac + Olaparib (first compound 2.53 µM) is 0.339; in the test with Sulindac + Olaparib (first compound 8 µM), 0.332; in test [2] (first compound 0.005 µM), 0.305; in test [2] (first compound 0.01581 µM), 0.168; in test [2] (first compound 0.05 µM), 0.135; in test [2] (first compound 0.1581 µM), 0.0915. In addition, the relative viability was 0.13 in test [2] (first compound 0.5 µM), 0.344 in test [3] (first compound 0.02 µM), 0.364 in test [3] (first compound 0.2 µM) and 0.309 in test [3] (first compound 0.6325 µM).
